The values below are quoted from earlier work in patent publication US11311529B2, “Topical formulations of 5-α-reductase inhibitors and uses thereof” (Varsona Therapeutics, Inc., priority 2018, dated 2022).

One series has as its system DHT. The conditions noted are these: 5 mg daily dose, oral, people suffering from BPH.
The next series deals with men. The note with it: oral, over a period of 12 to 24 weeks, compared with oral finasteride.

As to `C[C@]12C=CC(=O)N[C@@H]1CC[C@@H]1[C@@H]2CC[C@]2(C)[C@@H](C(=O)Nc3cc(C(F)(F)F)ccc3C(F)(F)F)CC[C@@H]12` [oral dutasteride, (5α,17β)-N-[2,5 bis(trifluoromethyl)phenyl]-3-oxo-4-azaandrost-1-ene-17-carboxamide], in the series with DHT, the DHT blocked is recorded as 98.4%+/−1.2. Also, the hair count results in the series with men is “better hair count results than oral finasteride”.

In the case of `CC(C)(C)NC(=O)[C@H]1CC[C@H]2[C@@H]3CC[C@H]4NC(=O)C=C[C@]4(C)[C@H]3CC[C@]12C` [oral finasteride, finasteride], the DHT blocked in the series with DHT is given as 70.8+/−18.3%.
